These results are taken from US9879036B2, “Mitochondrial aldehyde dehydrogenase-2 binding compounds and methods of use thereof” (Aviv Therapeutics, Inc., priority 2014, dated 2018).

Type in all cases: biochemical
The target of experiment [1] is T1, ALDH2*1/*2 (Homo sapiens, UniProt P05091, E504K).
T1 construct: His-tag; made in house; host or cells: E. coli BL21 (pETDuet-1 co-expression)
T1 sequence (P05091 18-517): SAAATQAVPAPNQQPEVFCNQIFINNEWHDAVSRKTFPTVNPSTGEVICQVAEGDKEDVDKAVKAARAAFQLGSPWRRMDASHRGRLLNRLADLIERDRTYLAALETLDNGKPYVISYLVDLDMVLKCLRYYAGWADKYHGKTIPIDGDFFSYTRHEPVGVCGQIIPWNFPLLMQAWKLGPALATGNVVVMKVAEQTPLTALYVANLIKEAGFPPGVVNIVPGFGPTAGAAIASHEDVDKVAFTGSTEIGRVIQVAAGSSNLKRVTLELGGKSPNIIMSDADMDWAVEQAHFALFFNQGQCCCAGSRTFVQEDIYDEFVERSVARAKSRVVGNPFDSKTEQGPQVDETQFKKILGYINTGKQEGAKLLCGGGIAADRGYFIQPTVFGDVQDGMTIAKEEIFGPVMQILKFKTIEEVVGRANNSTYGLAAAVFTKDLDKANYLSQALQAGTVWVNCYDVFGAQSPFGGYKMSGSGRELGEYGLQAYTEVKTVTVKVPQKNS
T1 sequence (P05091 18-517 E504K): T1 sequence (P05091 18-517) with E487K
Description: ALDH2 enzymatic activity, NADH accumulation at 340 nm, acetaldehyde substrate, heterozygous form. Particulars: relative to baseline enzymatic activity (100%); for activity at 2.5 µM: 2.5 μM compound; for activity at 5 µM: 5 μM compound; for activity at 10 µM: 10 μM compound; for activity at 20 µM: 20 μM compound. The procedure: (§1) ALDH2 catalyzes the oxidative reaction of substrate acetaldehyde to acetic acid using NAD^+ as a cofactor. Enzymatic activity, or catalytic rate, of aldehyde dehydrogenase (ALDH2) are measured spectrophotometrically at UV wavelength λ340 nm by the accumulation of reduced product NADH derived from NAD^+. Absorbance at λ340 nm is quantitatively proportional to the amount of NADH being produced over time (6.22 O.D. unit=1 mmol of NADH, measured in a 1-cm width standard cuvette). This method is well-established in the literature [e.g. Rex et al., Alcohol Clin. Exp. Res. 9, 147 (1985)].
(§2) ALDH2 catalyzes the oxidative reaction of substrate acetaldehyde to acetic acid using NAD^+ as a cofactor. Enzymatic activity, or catalytic rate, of aldehyde dehydrogenase (ALDH2) can be measured spectrophotometrically at UV wavelength λ340 nm by the accumulation of reduced product NADH derived from NAD^+. Absorbance at λ340 nm is quantitatively proportional to the amount of NADH being produced over time (6.22 O.D. unit=1 mmol of NADH, measured in a 1-cm width standard cuvette). This method is well-established in the literature [e.g. Rex et al., Alcohol Clin. Exp. Res. 9, 147 (1985)].
(§3) Cloning, expression and purification of human ALDH2 wild type and ALDH2*2 recombinant mutant enzymes: Full-length wild type human ALDH2 cDNA was purchased from ATCC (No. MGC-1806. GenBank ID: BC002967). The 18-amino acid mitochondria transport signal sequence was removed by PCR and cloned into the NheI/HindIII sites of a His-tag vector, pTrcHis, using standard molecular cloning techniques. The human ALDH2* cDNA construct containing the Asian E487K mutation was obtained by site-directed mutagenesis to create the E487K substitution of the wild type ALDH2. Both human clones were designed to express a recombinant protein with the His-tag at the N-terminus of the protein. For the co-expression experiments of human ALDH2 wild type and ALDH2*2 heterotetramers, a wild type ALDH2 gene and a ALDH2 E487K gene were inserted separately into the two multiple cloning sites of pETDuet-1 vector. (Novagen, CA, USA). All the vectors were transformed into BL21 E. coli host cells and subjected to 0.5 mM IPTG induction for protein expression at 30° C. Purifications of the recombinant proteins by affinity nickel columns (HisTrap, GE Healthy Science, USA) were carried out using standard protocols according to manufacturer's instructions (Novagen, USA).
(§4) ALDH2 catalyzes the oxidative reaction of substrate acetaldehyde to acetic acid using NAD^+ as a cofactor. Enzymatic activity, or catalytic rate, of aldehyde dehydrogenase (ALDH2) can be measured spectrophotometrically at UV wavelength λ340 nm by the accumulation of reduced product NADH derived from NAD^+. Because compounds of formula (I) are considered to be agonists or “activators” of ALDH2 the enzymatic activity measured will exceed 100% of the baseline enzymatic activity of the enzyme in its normal activation state. As the concentration of the compounds of formula (I) decreases from 20 micromolar to 0.16 micromolar in the presence of ALDH, a decrease in the activation of enzymatic activity is observed for the wild-type ALDH2*1/*1 and the heterozygous form ALDH2*1/*2.

Experiment [2] has as its target T2, ALDH2 (Homo sapiens, UniProt P05091).
T2 construct: His-tag (N); made in house; host or cells: E. coli BL21
T2 sequence (P05091 18-517): T1 sequence (P05091 18-517)
Description: ALDH2 activity with 20 μM of the compound (Table 3). As to conditions: 20 μM compound. In short, it runs like this:
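Compound was tested at 20 μM. ALDH2 oxidation of acetaldehyde with NAD+ cofactor was followed spectrophotometrically as NADH accumulation at 340 nm. Activity is expressed relative to the enzyme's baseline activity, taken as 100%.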

Experiment [3] addresses T3, ALDH2*1/*1 (Homo sapiens, UniProt P05091).
T3 construct: His-tag (N); made in house; host or cells: E. coli BL21 (pTrcHis vector)
T3 sequence (P05091 18-517): T1 sequence (P05091 18-517)
Description: ALDH2 enzymatic activity, NADH accumulation at 340 nm, acetaldehyde substrate, wild type. Particulars: relative to baseline enzymatic activity (100%); for activity at 2.5 µM: 2.5 μM compound; for activity at 5 µM: 5 μM compound; for activity at 10 µM: 10 μM compound; for activity at 20 µM: 20 μM compound. The procedure: as §1, §2, §3, §4

Substitutions are numbered along the chain they refer to.

For the molecule `COc1ccc(CNC(=O)c2cc(-c3cscc3CO)cnc2OCC2CC2)cc1F` [AC24], in experiment [1], the activity at 2.5 µM is 149%, the activity at 5 µM is 234%, the activity at 10 µM turned out to be 269% and the activity at 20 µM came out at 216%. Also, in experiment [2], the activity at 20 µM is over 250%. Besides, in experiment [3], the activity at 2.5 µM stood at 175%, the activity at 5 µM was determined as 248%, the activity at 10 µM is 321% and the activity at 20 µM was 428%.
As for `COc1ccc(CNC(=O)c2cc(-c3ccsc3CO)cnc2OCC2CC2)cc1F` [AC25, 2-(cyclopropylmethoxy)-N-(3-fluoro-4-methoxybenzyl)-5-(2-(hydroxymethyl)thiophen-3-yl)nicotinamide], in experiment [1], the activity at 2.5 µM was found to be 267%, the activity at 5 µM was determined as 321%, the activity at 10 µM amounted to 343% and the activity at 20 µM was found to be 260%. For the same molecule, the activity at 20 µM in experiment [2] is over 250%. In experiment [3], the activity at 2.5 µM came out at 273%, the activity at 5 µM was found to be 341%, the activity at 10 µM is 422% and the activity at 20 µM stood at 382%.
With `COc1ccc(CNC(=O)c2cc(-c3sccc3CO)cnc2OCC2CC2)cc1F` [AC26, 2-(cyclopropylmethoxy)-N-(3-fluoro-4-methoxybenzyl)-5-(3-(hydroxymethyl)thiophen-2-yl)nicotinamide], in experiment [1], the activity at 2.5 µM is 188%, the activity at 5 µM was 238%, the activity at 10 µM was 261% and the activity at 20 µM worked out at 281%. Further, the activity at 20 µM in experiment [2] was over 250%. In experiment [3], the activity at 2.5 µM was 199%, the activity at 5 µM is 235%, the activity at 10 µM stood at 352% and the activity at 20 µM worked out at 394%.
`COc1ccc(CNC(=O)c2cc(-c3ccsc3CO)ccc2OCC2CC2)cc1F` [AC27]: in experiment [1], the activity at 2.5 µM is 323%, the activity at 5 µM was 420%, the activity at 10 µM is 419% and the activity at 20 µM came out at 410%. Besides, the activity at 20 µM in experiment [2] was over 250%. In experiment [3], the activity at 2.5 µM stood at 293%, the activity at 5 µM came to 315%, the activity at 10 µM was determined as 379% and the activity at 20 µM is 364%.
In the case of `COc1ccc(CNC(=O)c2cc(-c3sccc3CO)ccc2OCC2CC2)cc1F` [AC28], in experiment [1], the activity at 2.5 µM was found to be 201%, the activity at 5 µM stood at 239%, the activity at 10 µM was 338% and the activity at 20 µM worked out at 456%. Moreover, the activity at 20 µM in experiment [2] was over 250%. In experiment [3], the activity at 2.5 µM came to 197%, the activity at 5 µM came out at 252%, the activity at 10 µM is 366% and the activity at 20 µM stood at 430%.
For the molecule `COc1ccc(CNC(=O)c2cc(-c3cscc3CO)ccc2OCC2CC2)cc1F` [AC29], in experiment [1], the activity at 2.5 µM amounted to 260%, the activity at 5 µM was found to be 349%, the activity at 10 µM turned out to be 392% and the activity at 20 µM stood at 423%. The activity at 20 µM in experiment [2] is over 250%. In experiment [3], the activity at 2.5 µM is 283%, the activity at 5 µM was 334%, the activity at 10 µM came out at 422% and the activity at 20 µM stood at 445%.
